In PMC8541513, “Stereoselective Synthesis of the Di-Spirooxindole Analogs Based Oxindole and Cyclohexanone Moieties as Potential Anticancer Agents” (Molecules, 2021):

Experiments:
Breast MCF-7 = test: MTT anticancer assay, breast MCF-7 cells; type: cell-based; parameters: key to IC50, Breast MCF-7: NA means that the tested compound did not show anticancer activity at 30 µM; NS: Not soluble; conditions: 1-30 µM, ± SD of three independent experiments; for IC50: Homo sapiens, MCF7, 48 h
Protocol: (§1) The antiproliferative activity against four cancer cell lines, including prostate PC3, cervical HeLa, and triple-negative breast cancer (MCF-7 and MDA-MB231) was evaluated by MTT assay, while standard drug doxorubicin was used as a reference for comparison (Table 1).
(§2) Cytotoxicity against BJ human fibroblast cells and cytotoxicity against PC3, HeLa, MCF-7, and MDA-MB231 cancer cell lines were evaluated by following the procedure as described in the literature (Supplementary Materials). […]
(§3) The Biological Activity Assays Protocols
(§4) Cytotoxic activity of compounds was evaluated in 96-well flat-bottomed micro plates by using the standard MTT (3-[4, 5-dimethylthiazole-2-yl]-2, 5-diphenyl-tetrazolium bromide) colorimetric assay.
(§5) For this purpose, PC3 cells (Prostate Cancer) / BJ Human fibroblast cells / HeLa cells (Cervical Cancer) / MCF-7 and MDA-MB-231 breast cancer cell line were cultured in Dulbecco’s Modified Eagle Medium, supplemented with 5% of fetal bovine serum (FBS), 100 IU/ml of penicillin and 100 µg/ml of streptomycin in 75 cm2 flasks, and kept in 5% CO2 incubator at 37 °C. Exponentially growing cells were harvested, counted with haemocytometer and diluted with a particular medium. Cell culture with the concentration of 1x10^5 cells/ml was prepared and introduced (100 µL/well) into 96-well plates. After overnight incubation, medium was removed and 200 µL of fresh medium was added with different concentrations of compounds (1-30µM). After 48 hrs, 200 µL MTT (0.5 mg/ml) was added to each well and incubated further for 4 hrs. Subsequently, 100µL of DMSO was added to each well. The extent of MTT reduction to formazan within cells was calculated by measuring the absorbance at 570 nm, using a micro plate reader (Spectra Max plus, Molecular Devices, CA, USA). The cytotoxicity was recorded […]
(§6) (1 picture or pasted object on this page, not shown here) […]
(§7) as concentration causing 50% growth inhibition (IC50) for PC3 cells. The percent inhibition was calculated by using the following formula:
(§8) % inhibition = 100-((mean of O.D of test compound – mean of O.D of negative control)/ (mean of O.D of positive control – mean of O.D of negative control)*100).
(§9) The results (% inhibition) were processed by using Soft- Max Pro software (Molecular Device, USA).
(§10) Standard drug used in the MTT assay was doxorubicin. […]

Human Fibroblast BJ = test: MTT cytotoxicity assay against BJ human fibroblast cells; type: cell-based; conditions: 48 h, 1-30 µM, ± SD of three independent experiments
Protocol: as §2, §3, §4, §5, §6, §7, §8, §9, §10

Cervical HeLa = test: MTT anticancer assay, cervical HeLa cells; type: cell-based; conditions: 48 h, 1-30 µM, ± SD of three independent experiments; for IC50: Homo sapiens, HeLa
Protocol: as §1, §2, §3, §4, §5, §6, §7, §8, §9, §10

Breast MDA-MB231 = test: MTT anticancer assay, breast MDA-MB231 cells; type: cell-based; parameters: key to IC50, Breast MDA-MB231: NA means that the tested compound did not show anticancer activity at 30 µM; NS: Not soluble; conditions: 1-30 µM, ± SD of three independent experiments; for IC50: Homo sapiens, MDA-MB-231, 48 h; for IC50, Breast MDA-MB231: 48 h
Protocol: as §1, §2, §3, §4, §5, §6, §7, §8, §9, §10

Prostate PC3 = test: MTT anticancer assay, prostate PC3 cells; type: cell-based; conditions: 1-30 µM, ± SD of three independent experiments; for IC50: Homo sapiens, PC-3, 48 h
Protocol: as §1, §2, §3, §4, §5, §6, §7, §8, §9, §10

| SMILES | IC50 (Breast MCF-7) [µM] | IC50 (Human Fibroblast BJ) [µM] | IC50 (Cervical HeLa) [µM] | melting point [°C] | IC50 (Breast MDA-MB231) [µM] | IC50 (Prostate PC3) [µM] | IC50, Breast MCF-7 (Breast MCF-7; 48 h) | IC50, Breast MDA-MB231 (Breast MDA-MB231) | IC50, Prostate PC3 (Prostate PC3; 48 h) | IC50, Cervical HeLa (Cervical HeLa) |
| --- | --- | --- | --- | --- | --- | --- | --- | --- | --- | --- |
| O=C1/C(=C/c2ccccc2)CCC[C@@]12[C@H](c1ccccc1)[C@H]1C[C@@H]3CCCC[C@@H]3N1[C@]21C(=O)Nc2ccccc21 [Compound 4a, (1. S,1′S,3′S,4a′S,8a′S,9a′R)-3-((E)-Benzylidene)-1′-phenyl-4a′,5′,6′,7′,8′,8a′,9′,9a′-octahydro-1′H-dispiro[cyclohexane-1,2′-pyrrolo[1,2-a]indole-3′,3″-indoline]-2,2″-dione] | 25 ± 0.57 | > 30 | 7.1 ± 0.2 | 70 to 71 | 19.5 ± 0.56 | 24.1 ± 1.1 | – | – | – | – |
| O=C1/C(=C/c2ccccc2)CCC[C@@]12[C@H](c1ccccc1)[C@H]1C[C@@H]3CCCC[C@@H]3N1[C@]21C(=O)Nc2cc(Cl)ccc21 [Compound 4b, (1. S,1′S,3′S,4a′S,8a′S,9a′R)-3-((E)-Benzylidene)-6″-chloro-1′-phenyl-4a′,5′,6′,7′,8′,8a′,9′,9a′-octahydro-1′H-dispiro[cyclohexane-1,2′-pyrrolo[1,2-a]indole-3′,3″-indoline]-2,2″-dione] | 27.7 ± 0.59 | > 30 | > 30 | – | 24.08 ± 0.02 | 3.7 ± 1 | – | – | – | – |
| O=C1/C(=C/c2ccccc2)CCC[C@@]12[C@H](c1ccccc1)[C@H]1C[C@@H]3CCCC[C@@H]3N1[C@]21C(=O)Nc2ccc(F)cc21 [Compound 4c, (1. S,1′S,3′S,4a′S,8a′S,9a′R)-3-((E)-Benzylidene)-5″-fluoro-1′-phenyl-4a′,5′,6′,7′,8′,8a′,9′,9a′-octahydro-1′H-dispiro[cyclohexane-1,2′-pyrrolo[1,2-a]indole-3′,3″-indoline]-2,2″-dione] | 27.8 ± 1.02 | > 30 | > 30 | 70 to 71 | 20.6 ± 2.16 | 17.9 ± 0.2 | – | – | – | – |
| O=C1/C(=C/c2ccccc2)CCC[C@@]12[C@H](c1ccccc1)[C@H]1C[C@@H]3CCCC[C@@H]3N1[C@]21C(=O)Nc2ccc([N+](=O)[O-])cc21 [Compound 4d, (1. S,1′S,3′S,4a′S,8a′S,9a′R)-3-((E)-Benzylidene)-5″-nitro-1′-phenyl-4a′,5′,6′,7′,8′,8a′,9′,9a′-octahydro-1′H-dispiro[cyclohexane-1,2′-pyrrolo[1,2-a]indole-3′,3″-indoline]-2,2″-dione] | > 30 | > 30 | > 30 | 111 to 122 | > 30 | 29.8 ± 0.1 | – | – | – | – |
| COc1ccc2c(c1)[C@]1(C(=O)N2)N2[C@H](C[C@@H]3CCCC[C@@H]32)[C@@H](c2ccccc2)[C@@]12CCC/C(=C\c1ccccc1)C2=O [Compound 4e, (1. S,1′S,3′S,4a′S,8a′S,9a′R)-3-((E)-Benzylidene)-5″-methoxy-1′-phenyl-4a′,5′,6′,7′,8′,8a′,9′,9a′-octahydro-1′H-dispiro[cyclohexane-1,2′-pyrrolo[1,2-a]indole-3′,3″-indoline]-2,2″-dione] | > 30 | > 30 | 26.5 ± 0.04 | 111 to 122 | > 30 | 19.6 ± 1.2 | – | – | – | – |
| O=C1/C(=C/c2ccc(Br)cc2)CCC[C@@]12[C@H](c1ccc(Br)cc1)[C@H]1C[C@@H]3CCCC[C@@H]3N1[C@]21C(=O)Nc2cc(Cl)ccc21 [Compound 4f, (1. S,1′S,3′S,4a′S,8a′S,9a′R)-3-((E)-4-Bromobenzylidene)-1′-(4-bromophenyl)-6″-chloro-4a′,5′,6′,7′,8′,8a′,9′,9a′-octahydro-1′H-dispiro[cyclohexane-1,2′-pyrrolo[1,2-a]indole-3′,3″-indoline]-2,2″-dione] | – | > 30 | > 30 | 97 to 98 | – | > 30 | NS ^c | NS | inactive | – |
| O=C1/C(=C/c2ccc(Br)cc2)CCC[C@@]12[C@H](c1ccc(Br)cc1)[C@H]1C[C@@H]3CCCC[C@@H]3N1[C@]21C(=O)Nc2ccc([N+](=O)[O-])cc21 [Compound 4g, (1. S,1′S,3′S,4a′S,8a′S,9a′R)-3-((E)-4-bromobenzylidene)-1′-(4-bromophenyl)-5″-nitro-4a′,5′,6′,7′,8′,8a′,9′,9a′-octahydro-1′H-dispiro[cyclohexane-1,2′-pyrrolo[1,2-a]indole-3′,3″-indoline]-2,2″-dione] | > 30 | 21.7 ± 0.2 | > 30 | 125 to 126 | – | 14.3 ± 1 | – | NS | – | – |
| O=C1/C(=C/c2cccc(F)c2)CCC[C@@]12[C@H](c1cccc(F)c1)[C@H]1C[C@@H]3CCCC[C@@H]3N1[C@]21C(=O)Nc2cc(Cl)ccc21 [Compound 4h, (1. S,1′S,3′S,4a′S,8a′S,9a′R)-6″-Chloro-3-((E)-3-fluorobenzylidene)-1′-(3-fluorophenyl)-4a′,5′,6′,7′,8′,8a′,9′,9a′-octahydro-1′H-dispiro[cyclohexane-1,2′-pyrrolo[1,2-a]indole-3′,3″-indoline]-2,2″-dione] | > 30 | > 30 | > 30 | 83 to 84 | 14.43 ± 0.09 | > 30 | – | – | – | – |
| O=C1/C(=C/c2cccc(F)c2)CCC[C@@]12[C@H](c1cccc(F)c1)[C@H]1C[C@@H]3CCCC[C@@H]3N1[C@]21C(=O)Nc2ccc([N+](=O)[O-])cc21 [Compound 4i, (1. S,1′S,3′S,4a′S,8a′S,9a′R)-3-((E)-3-Fluorobenzylidene)-1′-(3-fluorophenyl)-5″-nitro-4a′,5′,6′,7′,8′,8a′,9′,9a′-octahydro-1′H-dispiro[cyclohexane-1,2′-pyrrolo[1,2-a]indole-3′,3″-indoline]-2,2″-dione] | > 30 | > 30 | > 30 | 107 to 108 | 7.63 ± 0.08 | > 30 | – | – | – | – |
| COc1ccc2c(c1)[C@]1(C(=O)N2)N2[C@H](C[C@@H]3CCCC[C@@H]32)[C@@H](c2cccc(F)c2)[C@@]12CCC/C(=C\c1cccc(F)c1)C2=O [Compound 4j, (1. S,1′S,3′S,4a′S,8a′S,9a′R)-3-((E)-3-Fluorobenzylidene)-1′-(3-fluorophenyl)-5″-methoxy-4a′,5′,6′,7′,8′,8a′,9′,9a′-octahydro-1′H-dispiro[cyclohexane-1,2′-pyrrolo[1,2-a]indole-3′,3″-indoline]-2,2″-dione] | > 30 | > 30 | 11.9 ± 0.04 | 92 to 93 | 10.5 ± 0.71 | > 30 | – | – | – | – |
| O=C1/C(=C/c2cccc(Br)c2)CCC[C@@]12[C@H](c1cccc(Br)c1)[C@H]1C[C@@H]3CCCC[C@@H]3N1[C@]21C(=O)Nc2cc(Cl)ccc21 [Compound 4k, (1. S,1′S,3′S,4a′S,8a′S,9a′R)-3-((E)-3-Bromobenzylidene)-1′-(3-bromophenyl)-6″-chloro-4a′,5′,6′,7′,8′,8a′,9′,9a′-octahydro-1′H-dispiro[cyclohexane-1,2′-pyrrolo[1,2-a]indole-3′,3″-indoline]-2,2″-dione] | > 30 | > 30 | > 30 | 115 to 116 | > 30 | > 30 | – | – | – | inactive |
